Values quoted from earlier work as cited in patent publication US9630917B2, “Cysteamine prodrugs, pharmaceutical compositions thereof, and methods of use” (priority 2015, dated 2017).

Conditions: oral absorption; Smolin et al., Ped Res. 1988; 23, 616-620

- absolute bioavailability: about 10%
SMILES: NCCS [cysteamine]
